Earlier results in patent US8633332B2, “Efficient isolation of cimiracemate A, and methods of use” (Purapharm Company Limited, priority 2009, dated 2014).
“Also recorded” adds a separate entry of the source.

What was measured:
[1] = system: specific transcription factors; details: human macrophages, LPS-induced
TNF-α = details: human macrophages
MAP kinase = details: human macrophages

inhibition of LPS-induced MAP kinase activities (specific kinase phosphorylation) (MAP kinase): suppresses; also recorded: inhibit
SMILES: COc1ccc(/C=C/C(=O)OCC(=O)Cc2ccc(O)c(O)c2)cc1O [Cimiracemate A]
inhibition of activation of specific transcription factors [1]: suppresses; also recorded: inhibit
suppression of LPS-induced TNF-α production (TNF-α): suppresses; also recorded: suppress
